Source: patent EP2800973B1 (priority 2012, dated 2013)
Where two headings read alike, the source gives them in different places.

Legend:
[1] = system: BoCell™ model cell line; type: cell-based; conditions: for increase in BoCell™ Assay sensitivity: Figure 1, 24 hr pre-treatment with drug, then BoNT/A containing drug for an additional 24 hr, YFP/CFP emission ratio
[2] = system: BoCell™ modified neuroblastoma cells; type: cell-based
[3] = system: BoCells
[4] = system: neuroblastoma cells; conditions: pretreatment of cells; 1990 JBC paper; cited from earlier work

Nc1ncnc2c1nc(Br)n2[C@@H]1O[C@@H]2COP(=O)(O)O[C@H]2[C@H]1O [8-Bromoadenosine-cAMP]
increase in BoCell™ Assay sensitivity [1]: increased sensitivity was not seen | increase in BoCell™ Assay sensitivity ([1]; listed as 8-Br-cAMP): not

CC1CNCCN1S(=O)(=O)c1cccc2cnccc12.Cl.Cl (centres unmarked) [H7, 1-(5-isoquinolinylsulfonyl)-2-methylpiperazine dichloride]
increase in BoCell™ Assay sensitivity [1]: cause an increase in BoCell™ Assay sensitivity | H7 effect on assay sensitivity, dose dependence ([1]; Figure 2A, 24 hr pre-treatment, then BoNT/A with H7 for 24 hr): dose dependent | increase in sensitivity with multiple H7 lots ([1]; Figure 5, 0.75 mM H7 from three independent manufacturers, 24 hrs pre-incubation, then BoNT/A 24 hrs): all cause an increase in sensitivity | sensitivity of cells to BoNT/A treatment as measured by SNAP-25 reporter cleavage ([1]; pretreatment of cells with H7): significantly increased | H7 concentration giving maximal effects [2]: ImM | neurite length and neurite number per cells [2]: rapid increases in both neurite length and neurite number per cells | reversibility of the phenotypic change [2]: could be "rescued" by removal of the H7 | time and dose dependence of the H7 effect [2]: both time and dose-dependent | cell viability [3]: does not affect cell viability

N=C(N)NCCNS(=O)(=O)c1cccc2cnccc12 [HA1004]
morphologic changes in neuroblastoma cells [4]: failed to induce morphologic changes

CC(C)Cn1c(=O)n(C)c(=O)c2[nH]cnc21 [IBMX]
increase in BoCell™ Assay sensitivity [1]: not and increased sensitivity was not seen

CCCC(=O)Nc1ncnc2c1ncn2[C@@H]1O[C@@H]2COP(=O)(O)O[C@H]2[C@H]1OC(=O)CCC [dibutyryl-cAMP, dibutyryl-cyclic AMP]
increase in BoCell™ Assay sensitivity [1]: increased sensitivity was not seen | increase in BoCell™ Assay sensitivity ([1]; listed as db-cAMP): not

Calphostin C
increase in BoCell™ Assay sensitivity [1]: increased sensitivity was not seen | increase in BoCell™ Assay sensitivity ([1]; listed as calphostin): not
